Data set [1] is described as follows: Sample stability of testosterone in sample pools. Type of data set: physicochemical, human. To be noted: testosterone in samples. The source says: A blood serum sample is collected from a human patient. The serum is first de-proteinated using a 10% formic acid solution or a 1% trichloroacetic acid solution (in methanol). The deproteination also acts to release testosterone from SHBG, albumin, and other binding proteins. In other embodiments proteins can be removed from the blood with other acids such as a solution of 1% trichloroacetic acid in methanol.
To understand the stability of testosterone in samples, two levels of sample pool were subjected to the following conditions:
Freeze/Thaw: 1, 2, 3, 4, and 5 cycles.
Refrigerated (2-8° C.): 0, 1, 2, 4, 7, and 14 days.
Duplicate runs of samples were run on two separate days.

Data set [2] concerns plasma proteins. The conditions noted are these: in circulation; cited from earlier work.
For data set [3], the target named is T1, Sex hormone-binding globulin (SHBG) (Homo sapiens, UniProt P04278).
T1 sequence (P04278 30-402): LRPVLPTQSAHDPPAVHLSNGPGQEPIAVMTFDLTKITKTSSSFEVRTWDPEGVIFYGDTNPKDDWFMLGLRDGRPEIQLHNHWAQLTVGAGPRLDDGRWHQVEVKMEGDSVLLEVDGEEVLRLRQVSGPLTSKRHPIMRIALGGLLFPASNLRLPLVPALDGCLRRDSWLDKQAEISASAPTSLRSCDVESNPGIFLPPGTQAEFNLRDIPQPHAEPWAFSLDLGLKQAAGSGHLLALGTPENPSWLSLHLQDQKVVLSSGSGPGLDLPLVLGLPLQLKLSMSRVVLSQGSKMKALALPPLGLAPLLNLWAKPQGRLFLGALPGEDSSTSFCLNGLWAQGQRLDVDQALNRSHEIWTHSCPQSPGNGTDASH
To be noted: SHBG vs albumin; cited from earlier work.

On to `C[C@]12CC[C@H]3[C@@H](CCC4=CC(=O)CC[C@@]43C)[C@@H]1CC[C@@H]2O` [Testosterone, 4 androsten 17β-ol-3-one], for which the Stability entry is “Up to 5 with no effect Cycles” in data set [1] (Freeze Thaw Cycles, with no effect); 7 days in data set [1] (Refrigerated (0°-8° C.)); 4 days in data set [1] (Room Temp (18-25° C.)). The “testosterone circulating unbound to plasma proteins” value in data set [2] is “Less than 2.5%”. The “binding capacity of SHBG for testosterone relative to that of albumin” value in data set [3] is “approximately 30,000 times”.

Values taken from patent US8329392B2, “Determination of testosterone by mass spectrometry” (Quest Diagnostics Investments Incorporated, priority 2003, dated 2012).
